From US20200155632A1, “COMPOSITION FOR TREATING AND PREVENTING MALE SEXUAL DISORDERS” (KOLINPHARMA S.P.A., priority 2017, published 2020)

Assays:
[1] = Solubility tests of the active ingredients of Menix; type: physicochemical; details: tested in order: culture medium, water, DMSO, organic solvents
Excerpt: Before being subjected to the cell assays, the active ingredients of Menix have been subjected to solubility tests to define the best solubilization agent for each of the assays.

[2] = test system: cGMP in ECV-304 cells (human vascular endothelium cells); assay: cGMP levels by ELISA in ECV-304 cells after treatment with Menix active ingredients and associations; type: cell-based; parameters: Average % deviation from control (cGMP levels): concentration or dose not given beside the values; details: for pM (cGMP), levels of expression of cGMP: 48 hours of treatment, average of n=3 biological replicates, concentrations of Table 3, control 82.1; for Average % deviation from control (cGMP levels): 48 hours, vs non-treated cells
Method: For this experiment, human vascular endothelium cells were selected (ECV-304). […] At this point, the cells were treated with trypsin and EDTA and were re-examined in appropriate culture flasks.
The cGMP levels were determined by ELISA assay, following the operating instructions given in the protocol supplied by the manufacturer (cGMP ELISA KIT—STA 505-5, Cloud Clone Corp), running the assay in the acetylated embodiment to increase the sensitivity thereof.
For the experiment, the ECV-304 cells were sowed in MW-6 and treated for 48 hours with the active ingredients of Menix and associations thereof. After the 48 hours had elapsed, the supernatants were collected and frozen at −80° C. until use. The untreated cells were used as a control.
The base levels of cGMP were determined by ELISA assay, following instructions supplied by the manufacturer (STA 505-5 Cell Biolabs Inc).
The results, expressed in terms of concentration (pM) of cGMP average±standard deviation (n=3 biological replicates), are set out in FIG. 3 and Table 4.

[3] = test system: subjects suffering from erectile dysfunction (from mild to moderate); details: 600 mg/daily, 26 subjects; cited from earlier work
[4] = test system: diabetic rat; details: cited from earlier work
[5] = test system: ICAM-1 and P-selectine; details: 2 g daily, adjuvant to sildenafil twice weekly; cited from earlier work
[6] = test system: rats with acute arteriogenic erectile dysfunction; details: 2% p/v in water for three weeks; cited from earlier work
[7] = oral administration; cited from earlier work
[8] = test system: subjects suffering from mild erectile dysfunction; details: 1.5 g daily for a month, oral, 24 subjects; cited from earlier work
[9] = test system: aged rats; details: dissolved 1% in water; cited from earlier work
[10] = test system: rats affected by type-1 diabetes; details: 400 mg/kg/daily; cited from earlier work

Structure (SMILES)	Solvent in which the active ingredient has been solubilized [1]	pM (cGMP), levels of expression of cGMP [2]	Average % deviation from control (cGMP levels) [2]	other results
CC(=O)O[C@H](CC(=O)[O-])C[N+](C)(C)C [N-ACETYL-L-CARNITINE, (R)-3-acetyloxy-4-trimethylammonio-butanoate]	Water	22 pM	−73.20%	–
O=C(O)CCCCC1CCSS1 (racemic) [α-LIPOIC ACID, alpha-lipoic acid]	–	60 pM	−26.92%	Indicators connected to erectile dysfunction (IIEF-5) [3]: significant improvement; Levels of endothelial NOS and neuron NOS ([4]; 65 mg/kg/daily for 15 days): increase in levels of endothelial NOS and of neuron NOS; Corpus cavernosum dysfunctions ([4]; 300 mg/kg/daily for a month): prevented and ameliorated corpus cavernosum dysfunctions
CCC(=O)O[C@H](CC(=O)[O-])C[N+](C)(C)C [propionyl-L-carnitine]	–	–	–	Endogenous levels of endothelial dysfunction markers such as ICAM-1 and P-selectine [5]: significant reduction
NCC(=O)[O-].NCC(=O)[O-].[Zn+2] [Zn, zinc bisglycinate]	–	90 pM	9.62%	–
NC(=O)NCCCC(N)C(=O)O (centres unmarked) [CITRULLINE, 2-amino-5-(carbamoylamino)pentanoic acid]	Culture medium	140 pM	70.52%	Erectile function [6]: significant improvement in erectile function; NO plasmatic levels [6]: increasing NO plasmatic levels; Blood levels of L-arginine compared with basic values [7]: increase in the blood levels of L-arginine; Erectile function on EHS and IIEF-5 [8]: increase in erectile function
NCCS(=O)(=O)O [TAURINE, 2-aminoethanesulphonic acid]	Culture medium	137 pM	66.87%	Levels of NOS and NO in the rat's penis [9]: increases levels of both NOS and NO; Secretion of androgens, testosterone [9]: increases the secretion of androgens and in particular of testosterone; Sperm quality (count, vitality, motility) [9]: improves sperm quality; Levels of cGMP and eNOS in the corpus cavernosum [10]: increased the levels of both cGMP and eNOS; Pressure inside the corpus cavernosum [10]: increase in pressure inside the corpus cavernosum
